Reference: the kinase profiling compilation of Christmann-Franck et al. (2016)
“And” between values parts separate entries of the source, which are not always exact repeats. Identical values can stand only once.

How the values were obtained:
Test in all cases: radiometric filter-binding kinase assay, Kinase HotSpot
Details in all cases: compound 0.5 µM; ATP 10 µM
[1] = biological target: TGFBR2 (human) (UniProt P37173)
[2] = biological target: FGR (human) (UniProt P09769)
[3] = biological target: NEK6 (human) (UniProt Q9HC98)
[4] = biological target: PNCK (human) (UniProt Q6P2M8)
[5] = biological target: CDK6 CCND3 (human) (UniProt P30281+Q00534)
[6] = biological target: STK33 (human) (UniProt Q9BYT3)
[7] = biological target: STK3 (human) (UniProt Q13188)
[8] = biological target: MAP3K7 TAB1 (human) (UniProt O43318+Q15750)
[9] = biological target: MAP2K1 (human) (UniProt Q02750)
[10] = biological target: EPHB3 (human) (UniProt P54753)
[11] = biological target: MAPK3 (human) (UniProt P27361)
[12] = biological target: STK10 (human) (UniProt O94804)
[13] = biological target: DCLK2 (human) (UniProt Q8N568)
[14] = biological target: CAMK2A (human) (UniProt Q9UQM7)
[15] = biological target: NEK9 (human) (UniProt Q8TD19)
[16] = biological target: MAPKAPK3 (human) (UniProt Q16644)
[17] = biological target: CDK5 CDK5R1 p35 (human) (UniProt Q00535+Q15078)
[18] = biological target: PRKG1 (human) (UniProt Q13976)
[19] = biological target: STK17A (human) (UniProt Q9UEE5)
[20] = biological target: CLK1 (human) (UniProt P49759)
[21] = biological target: JAK3 JH1 JH2 (human) (UniProt P52333)
[22] = biological target: IRAK1 (human) (UniProt P51617)
[23] = biological target: GRK5 (human) (UniProt P34947)
[24] = biological target: STK25 (human) (UniProt O00506)
[25] = biological target: CAMK2B (human) (UniProt Q13554)
[26] = biological target: CAMK4 (human) (UniProt Q16566)
[27] = biological target: SRC (human) (UniProt P12931)
[28] = biological target: MAPK8 (human) (UniProt P45983)
[29] = biological target: CAMK2G (human) (UniProt Q13555)
[30] = biological target: MAP3K5 (human) (UniProt Q99683)
[31] = biological target: MYLK (human) (UniProt Q15746)
[32] = biological target: MAP3K11 (human) (UniProt Q16584)
[33] = biological target: PASK (human) (UniProt Q96RG2)
[34] = biological target: STK16 (human) (UniProt O75716)
[35] = biological target: MINK1 (human) (UniProt Q8N4C8)
[36] = biological target: LCK (human) (UniProt P06239)
[37] = biological target: MAP4K4 (human) (UniProt O95819)
[38] = biological target: CDK4 CCND3 (human) (UniProt P30281+P11802)
[39] = biological target: CAMK1 (human) (UniProt Q14012)
[40] = biological target: ROCK2 (human) (UniProt O75116)
[41] = biological target: CAMK2D (human) (UniProt Q13557)

PRKG1 (human), sequence (Q13976 whole entry, looked up): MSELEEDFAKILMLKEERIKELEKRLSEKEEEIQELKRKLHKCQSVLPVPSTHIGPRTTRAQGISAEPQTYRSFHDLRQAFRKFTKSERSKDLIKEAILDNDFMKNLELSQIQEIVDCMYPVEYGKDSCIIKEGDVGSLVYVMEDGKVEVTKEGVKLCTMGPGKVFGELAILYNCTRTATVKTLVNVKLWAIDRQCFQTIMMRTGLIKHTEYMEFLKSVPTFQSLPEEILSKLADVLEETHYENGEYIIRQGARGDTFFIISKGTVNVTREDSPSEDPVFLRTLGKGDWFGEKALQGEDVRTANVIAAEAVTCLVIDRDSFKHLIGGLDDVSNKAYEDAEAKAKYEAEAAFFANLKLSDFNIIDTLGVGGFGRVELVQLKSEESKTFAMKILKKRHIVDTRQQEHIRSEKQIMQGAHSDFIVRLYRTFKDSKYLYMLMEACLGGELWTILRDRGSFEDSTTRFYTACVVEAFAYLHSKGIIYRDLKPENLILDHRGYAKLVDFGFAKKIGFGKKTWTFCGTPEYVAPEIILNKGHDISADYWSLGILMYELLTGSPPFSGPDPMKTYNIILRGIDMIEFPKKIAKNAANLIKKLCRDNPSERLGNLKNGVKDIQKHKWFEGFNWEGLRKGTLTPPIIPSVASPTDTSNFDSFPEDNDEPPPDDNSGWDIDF
MAPK8 (human), sequence (P45983 whole entry, looked up): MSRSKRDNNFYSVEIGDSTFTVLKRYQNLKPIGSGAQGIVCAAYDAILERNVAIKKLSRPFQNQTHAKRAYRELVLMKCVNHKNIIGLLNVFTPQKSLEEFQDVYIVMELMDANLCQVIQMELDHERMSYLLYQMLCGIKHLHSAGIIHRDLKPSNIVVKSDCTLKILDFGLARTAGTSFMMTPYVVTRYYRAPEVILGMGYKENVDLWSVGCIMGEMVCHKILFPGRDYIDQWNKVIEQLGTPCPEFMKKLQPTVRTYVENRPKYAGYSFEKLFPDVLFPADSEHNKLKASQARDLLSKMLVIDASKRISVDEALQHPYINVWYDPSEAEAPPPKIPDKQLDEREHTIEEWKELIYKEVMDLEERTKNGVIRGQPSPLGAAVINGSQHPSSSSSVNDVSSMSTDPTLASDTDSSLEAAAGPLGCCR
PNCK (human), sequence (Q6P2M8 whole entry, looked up): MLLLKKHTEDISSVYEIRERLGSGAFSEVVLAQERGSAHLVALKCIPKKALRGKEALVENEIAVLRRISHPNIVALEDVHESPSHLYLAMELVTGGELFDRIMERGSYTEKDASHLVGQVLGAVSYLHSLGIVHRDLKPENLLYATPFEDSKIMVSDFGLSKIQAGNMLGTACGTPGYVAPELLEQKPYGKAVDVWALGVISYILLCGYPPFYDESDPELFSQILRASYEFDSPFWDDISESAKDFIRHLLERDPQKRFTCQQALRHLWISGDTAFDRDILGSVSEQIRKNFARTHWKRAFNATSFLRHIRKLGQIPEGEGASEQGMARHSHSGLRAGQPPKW
GRK5 (human), sequence (P34947 whole entry, looked up): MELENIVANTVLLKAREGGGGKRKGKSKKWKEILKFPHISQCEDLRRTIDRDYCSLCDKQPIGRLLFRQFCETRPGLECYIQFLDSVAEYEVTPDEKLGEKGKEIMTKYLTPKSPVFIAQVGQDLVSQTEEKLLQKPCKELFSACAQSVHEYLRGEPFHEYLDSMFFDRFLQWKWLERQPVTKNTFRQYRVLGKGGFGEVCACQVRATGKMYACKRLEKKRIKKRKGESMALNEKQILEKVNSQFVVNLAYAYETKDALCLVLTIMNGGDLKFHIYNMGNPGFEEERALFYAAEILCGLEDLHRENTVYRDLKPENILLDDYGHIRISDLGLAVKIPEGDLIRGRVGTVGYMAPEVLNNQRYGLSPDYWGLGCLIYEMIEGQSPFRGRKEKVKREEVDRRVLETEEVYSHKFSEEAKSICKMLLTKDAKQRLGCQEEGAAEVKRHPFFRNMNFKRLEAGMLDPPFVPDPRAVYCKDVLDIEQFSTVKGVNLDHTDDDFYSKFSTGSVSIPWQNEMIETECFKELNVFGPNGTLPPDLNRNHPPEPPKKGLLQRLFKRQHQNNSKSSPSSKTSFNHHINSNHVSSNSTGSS
MAP2K1 (human), sequence (Q02750 whole entry, looked up): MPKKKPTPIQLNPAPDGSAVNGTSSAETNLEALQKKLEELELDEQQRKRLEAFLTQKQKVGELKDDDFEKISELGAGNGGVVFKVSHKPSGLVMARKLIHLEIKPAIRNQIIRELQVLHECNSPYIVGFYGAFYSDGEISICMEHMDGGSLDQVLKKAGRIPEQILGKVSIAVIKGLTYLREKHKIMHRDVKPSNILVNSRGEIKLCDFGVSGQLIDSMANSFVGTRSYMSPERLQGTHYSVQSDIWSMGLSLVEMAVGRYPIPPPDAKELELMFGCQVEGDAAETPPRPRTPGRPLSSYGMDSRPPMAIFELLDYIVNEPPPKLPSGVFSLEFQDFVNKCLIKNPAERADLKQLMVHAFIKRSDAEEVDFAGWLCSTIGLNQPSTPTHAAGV
EPHB3 (human), sequence (P54753 whole entry, looked up): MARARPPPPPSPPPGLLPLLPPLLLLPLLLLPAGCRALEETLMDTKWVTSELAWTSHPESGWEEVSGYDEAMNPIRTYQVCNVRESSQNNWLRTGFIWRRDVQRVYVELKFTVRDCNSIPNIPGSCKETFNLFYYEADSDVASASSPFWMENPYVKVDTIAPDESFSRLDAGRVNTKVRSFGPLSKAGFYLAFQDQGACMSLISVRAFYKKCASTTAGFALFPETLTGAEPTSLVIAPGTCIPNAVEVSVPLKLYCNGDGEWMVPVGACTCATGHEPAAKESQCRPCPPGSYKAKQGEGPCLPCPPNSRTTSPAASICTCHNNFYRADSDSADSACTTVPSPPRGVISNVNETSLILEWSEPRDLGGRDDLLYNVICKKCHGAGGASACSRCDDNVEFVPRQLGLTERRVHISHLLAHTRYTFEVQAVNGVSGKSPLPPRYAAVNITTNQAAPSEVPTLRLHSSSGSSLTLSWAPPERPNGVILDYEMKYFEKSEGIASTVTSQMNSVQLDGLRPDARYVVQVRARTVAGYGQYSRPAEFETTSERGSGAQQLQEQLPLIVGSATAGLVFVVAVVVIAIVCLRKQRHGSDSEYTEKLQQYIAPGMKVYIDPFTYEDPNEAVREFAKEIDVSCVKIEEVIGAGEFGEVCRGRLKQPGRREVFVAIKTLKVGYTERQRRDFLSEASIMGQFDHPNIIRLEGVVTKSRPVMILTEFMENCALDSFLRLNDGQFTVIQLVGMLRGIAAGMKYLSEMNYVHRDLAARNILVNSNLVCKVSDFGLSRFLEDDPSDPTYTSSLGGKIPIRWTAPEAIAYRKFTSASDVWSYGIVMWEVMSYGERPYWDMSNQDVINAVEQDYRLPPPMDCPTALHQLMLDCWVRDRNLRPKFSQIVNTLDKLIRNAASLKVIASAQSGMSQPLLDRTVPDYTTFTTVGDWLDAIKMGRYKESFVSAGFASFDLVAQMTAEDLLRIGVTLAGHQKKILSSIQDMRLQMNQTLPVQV
ROCK2 (human), sequence (O75116 whole entry, looked up): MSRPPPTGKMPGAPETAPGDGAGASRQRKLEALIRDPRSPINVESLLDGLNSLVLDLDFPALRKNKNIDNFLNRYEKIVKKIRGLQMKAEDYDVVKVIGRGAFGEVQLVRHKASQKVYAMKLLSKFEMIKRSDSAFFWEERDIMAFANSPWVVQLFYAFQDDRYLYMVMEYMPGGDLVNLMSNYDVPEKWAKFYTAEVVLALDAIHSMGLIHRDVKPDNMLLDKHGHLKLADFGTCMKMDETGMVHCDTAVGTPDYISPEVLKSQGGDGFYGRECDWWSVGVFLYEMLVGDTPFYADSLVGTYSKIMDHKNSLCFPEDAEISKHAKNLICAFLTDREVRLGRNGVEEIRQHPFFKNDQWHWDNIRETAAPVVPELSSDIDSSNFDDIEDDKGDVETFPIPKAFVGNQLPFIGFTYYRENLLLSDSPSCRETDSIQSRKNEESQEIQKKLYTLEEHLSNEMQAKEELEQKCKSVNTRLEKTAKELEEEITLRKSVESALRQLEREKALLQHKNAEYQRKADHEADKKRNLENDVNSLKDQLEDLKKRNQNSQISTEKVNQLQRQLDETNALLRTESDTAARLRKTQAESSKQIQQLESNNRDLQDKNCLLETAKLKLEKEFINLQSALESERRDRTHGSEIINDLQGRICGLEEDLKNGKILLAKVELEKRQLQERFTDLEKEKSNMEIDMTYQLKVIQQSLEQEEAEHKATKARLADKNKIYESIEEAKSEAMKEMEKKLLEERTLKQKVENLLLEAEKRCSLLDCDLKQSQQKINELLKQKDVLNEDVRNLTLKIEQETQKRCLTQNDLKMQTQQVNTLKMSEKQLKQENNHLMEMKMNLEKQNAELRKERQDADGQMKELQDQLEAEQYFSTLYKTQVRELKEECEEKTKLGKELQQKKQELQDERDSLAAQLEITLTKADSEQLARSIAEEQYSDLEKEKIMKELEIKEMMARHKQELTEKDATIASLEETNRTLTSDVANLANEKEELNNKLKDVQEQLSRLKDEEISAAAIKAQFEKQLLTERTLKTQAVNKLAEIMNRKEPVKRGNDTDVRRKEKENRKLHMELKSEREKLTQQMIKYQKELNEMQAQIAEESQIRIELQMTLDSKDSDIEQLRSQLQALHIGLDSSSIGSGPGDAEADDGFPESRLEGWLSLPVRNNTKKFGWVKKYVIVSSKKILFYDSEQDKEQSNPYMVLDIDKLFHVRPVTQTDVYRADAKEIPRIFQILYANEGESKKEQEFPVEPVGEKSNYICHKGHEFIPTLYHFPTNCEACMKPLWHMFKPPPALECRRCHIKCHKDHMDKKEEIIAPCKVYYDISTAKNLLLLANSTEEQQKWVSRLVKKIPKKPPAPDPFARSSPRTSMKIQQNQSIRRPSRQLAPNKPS

Which results are given for `Cc1ccc(S(=O)(=O)/C=C/C#N)cc1`?
residual activity [1]: 97.9%; residual activity [2]: 100%; residual activity [3]: 108%; residual activity [4]: 107%; residual activity [5]: 104%; residual activity [6]: 87.1%; residual activity [7]: 93.6%; residual activity [8]: 99.9%; residual activity [9]: 93.9%; residual activity [10]: 104%; residual activity [11]: 98.2%; residual activity [12]: 90.6%; residual activity [13]: 96.1%; residual activity [14]: 103%; residual activity [15]: 95.6%; residual activity [16]: 97.8%; residual activity [17]: 97%; residual activity [18]: 95.8% and 96.7%; residual activity [19]: 97.8%; residual activity [20]: 107%; residual activity [21]: 101%; residual activity [22]: 103%; residual activity [23]: 105%; residual activity [24]: 89.6%; residual activity [25]: 106%; residual activity [26]: 96.4%; residual activity [27]: 102%; residual activity [28]: 74.7%; residual activity [29]: 103%; residual activity [30]: 100%; residual activity [31]: 93.9%; residual activity [32]: 98.2%; residual activity [33]: 99.3%; residual activity [34]: 88.3%; residual activity [35]: 111%; residual activity [36]: 93.7%; residual activity [37]: 106%; residual activity [38]: 100%; residual activity [39]: 98.8%; residual activity [40]: 99.1%; residual activity [41]: 102%
